Test system: IKZF1
Assay: Nuclear proteome by mass spectrometry (DIA) after cell treatment with thalidomide
Type: cell-based
Conditions: cells treated with thalidomide; FIG. 14
Protocol: First, cells of interest are isolated. This is done by harvesting, homogenizing, washing, and then pelleting the cells of interest. The pellet is then resuspended in a buffer A not comprising polycations (e.g., no spermidine or spermine). NP40 detergent solution is then added to isolate nuclei and cells are spun and are pelleted. Optionally, prior to salt extraction, the pellet is treated with MNase at 37° C. for 5 minutes and is quenched with EDTA. The pellet is resuspended in buffer A and […] NaCl, and then is incubated at 4° C. for 30 minutes. The insoluble chromatin is pelleted for later analysis. The supernatant is used for further analysis.
400 ul of 01.% PPS is added to the nuclear pellet of EXAMPLE 1, which is then sonicated at a setting output of 5 for 30 seconds and a protein concentration is determined using A280 reading. The sample is then boiled at 99 C for 5 minutes, is allowed to cool at room temperature, and is then briefly spun down. DTT is added for a final concentration of 5 mM, and is incubated at 60° C. for 30 minutes. Next, IAA is added for a final concentration of 15 mM, and is incubated at room temperature in the dark for 30 minutes. […]
Data were acquired on a ThermoFisher QExactive-HF instrument operating in DIA mode. […] Peptide quantification was performed using EncyclopeDIA software. […]

In the case of `O=C1CCC(N2C(=O)c3ccccc3C2=O)C(=O)N1` (stereo not shown) [thalidomide], the “pharmacological degradation of IKZF1 after cell treatment” value is reported as “degraded”.

— patent publication US12276667B2, “Isolation and characterization of the nuclear proteome” (Altius Institute for Biomedical Sciences, priority 2018, dated 2025)
